Measurements reported in US11220524B2, “Selective inhibitors of protein arginine methyltransferase 5 (PRMT5)” (PRELUDE THERAPEUTICS, INCORPORATED, priority 2017, dated 2022).
Structures can show the parent of a compound that is named as a salt.

Tests used:
PRMT5/MEP50 complex = PRMT5/MEP50 complex (Homo sapiens (Human), UniProt O14744); experiment: Biochemical assay: PRMT5/MEP50 methylation of histone H2A with 3H-SAM, filter plate scintillation; conditions: histone H2A 5 μM, SAM 1 μM, enzyme 5 nM; read-out: PRMT5/MEP50 IC50
Experimental: Biochemical Assay Protocol
Compounds were solubilized, and 3-fold diluted in 100% DMSO. […] Standard reactions were performed in a total volume of […] assay buffer, with histone H2A (5 μM final) as substrate. To this was added the PRMT5/MEP50 complex diluted to provide a final assay concentration of 5 nM and the compounds were allowed to preincubate for 15 to 20 minutes at room temperature. The reaction was initiated by adding S-[3H-methyl]-adenosyl-L-methionine (PerkinElmer) to final concentration of 1 μM. Following a 60 minutes incubation at 30° C., the reaction was stopped by adding 100 μL of 20% TCA. Each reaction was spotted onto filter plate (MultiScreen FB Filter Plate, Millipore), and washed 5 times with PBS buffer, Scintillation fluid was added to the filter plate and read in a scintillation counter. IC50 values were determined by fitting the data to the standard 4 parameters with Hill Slope using GraphPad Prism software.

[1] = tested on: Symmetric Di-Methyl Arginine (sDMA) in Granta-519 cells; experiment: Western blot for symmetric di-methyl arginine (sDMA) marks in Granta cells, 3 days treatment; assay type: cell-based; conditions: Homo sapiens; for IC50: 72 h, Granta-519 cell line, 3 days; for inhibition at 1 µM: Granta-519
Experimental: Cell Treatment and Western Blotting for Detecting Symmetric Di-Methyl Arginine (sDMA) and Histone H3R8 Dimethyl Symmetric (H3R8me2s) Marks
Initial compounds screening in A549 cells: Compounds were dissolved in DMSO to make 10 mM stock and further diluted to 0.1, and 1 mM. A549 cells were maintained in PRMI 1640 (Corning Cellgro, Catalog #: 10-040-CV) medium supplemented with 10% v/v FBS (GE Healthcare, Catalog #: SH30910.03). One day before experiment, 1.25×10^5 cells were seeded in 6 well plate in 3 mL medium and incubated overnight. The next day, medium was changed and 3 uL of compound solution was added (1:1,000 dilution, 0.1 and 1 uM final concentration; DMSO concentration: 0.1%), and incubated for 3 days. Cells incubated with DMSO was used as a vehicle control. Cells were washed once with PBS, trypsinized in 150 uL 0.25% Trypsin (Corning, Catalog #: 25-053-CI), neutralized with 1 mL complete medium, transferred to microcentrifuge tubes and collected. Cell pellet was then resuspended in 15 uL PBS, lysed in 4% SDS, and homogenized by passing through homogenizer column (Omega Biotek, Catalog #: HCR003). Total protein concentrations were determined by BCA assay (ThermoFisher Scientific, Catalog #: 23225). Lysates were mixed with 5× Laemmli buffer and boiled for 5 min. Forty ug of total protein was separated on SDS-PAGE gels (Bio-Rad, catalog #: 4568083, 4568043), transferred to PVDF membrane, blocked with 5% dry milk (Bio-Rad, Catalog #: 1706404) in TBS with 0.1% v/v Tween 20 (TBST) for 1 hour at room temperature (RT), and incubated with primary antibodies (sDMA: Cell signaling, Catalog #: 13222, 1:3,000; H3R8me2s: Epigentek, Catalog #: A-3706-100, 1:2,000; β-Actin: Abcam, Catalog #: ab8227, 1:10,000) in 5% dry milk in TBST at 4° C. for overnight. The next day, membranes were washed with TBST, 5×5 min, and incubated withhP conjugated seconded antibody (GE Healthcare; Catalog #: NA934-1ML; 1:5,000) for 2 hours at RT, followed by 5×5 min washes with TBST, and incubation with ECL substrates (Bio-Rad, Catalog #: 1705061, 1705062). Chemiluminescent signal was captured with FluoChem HD2 imager (Proteinsimple) and analyzed by ImageJ.
Cells incubated with DMSO was used as a vehicle control. Cells were harvested and subjected to western blot analysis as described above. SmD3me2s and H3R8me2s bands were quantified by ImageJ. Signals were normalized to β-Actin and DMSO control. IC50 values were calculated using Graphpad Prism.

Sequence of PRMT5/MEP50 complex (O14744 whole entry): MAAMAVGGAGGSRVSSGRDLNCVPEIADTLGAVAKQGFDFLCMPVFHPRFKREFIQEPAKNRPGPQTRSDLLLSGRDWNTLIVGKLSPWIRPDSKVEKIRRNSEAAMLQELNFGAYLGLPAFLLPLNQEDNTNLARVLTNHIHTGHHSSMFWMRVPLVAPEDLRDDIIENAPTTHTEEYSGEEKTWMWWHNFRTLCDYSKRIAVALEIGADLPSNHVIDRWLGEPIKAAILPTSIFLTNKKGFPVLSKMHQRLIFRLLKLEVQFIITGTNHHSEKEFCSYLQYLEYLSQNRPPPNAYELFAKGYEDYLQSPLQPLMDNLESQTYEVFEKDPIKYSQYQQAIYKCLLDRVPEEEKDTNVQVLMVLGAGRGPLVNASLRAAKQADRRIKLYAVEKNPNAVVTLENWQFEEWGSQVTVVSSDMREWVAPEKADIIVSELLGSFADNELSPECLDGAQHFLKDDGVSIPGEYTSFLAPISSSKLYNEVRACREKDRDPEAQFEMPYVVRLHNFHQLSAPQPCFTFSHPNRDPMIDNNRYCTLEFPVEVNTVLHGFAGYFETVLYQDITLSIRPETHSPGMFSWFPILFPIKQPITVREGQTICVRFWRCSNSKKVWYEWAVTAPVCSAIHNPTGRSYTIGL
Sequence of PRMT5/MEP50 complex (Q9BQA1 whole entry partner): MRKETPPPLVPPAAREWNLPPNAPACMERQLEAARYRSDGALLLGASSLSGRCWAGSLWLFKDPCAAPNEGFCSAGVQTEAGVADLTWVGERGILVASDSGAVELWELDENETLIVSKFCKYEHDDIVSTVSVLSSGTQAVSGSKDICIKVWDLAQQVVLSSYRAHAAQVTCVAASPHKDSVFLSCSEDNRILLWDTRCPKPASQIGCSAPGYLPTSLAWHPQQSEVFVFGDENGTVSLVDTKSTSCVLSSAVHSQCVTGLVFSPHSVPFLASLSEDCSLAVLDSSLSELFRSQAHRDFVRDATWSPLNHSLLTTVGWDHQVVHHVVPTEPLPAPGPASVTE

| SMILES | IC50 (PRMT5/MEP50 complex) [nM] | IC50 [1] [nM] | inhibition at 1 µM [1] [%] |
| --- | --- | --- | --- |
| CO/N=c1\nc[nH]c2c1ccn2[C@@H]1O[C@H]([C@H](O)c2ccc(C(F)(F)F)c(C)c2)[C@@H](O)[C@H]1O [Example 98, 7-((2R,3R,4S,5R)-3,4-dihydroxy-5-((R)-hydroxy(3-methyl-4-(trifluoromethyl)phenyl)methyl)tetrahydrofuran-2-yl)-1,7-dihydro-4H-pyrrolo[2,3-d]pyrimidin-4-one O-methyl oxime] | 8.4 | 9 | – |
| CO/N=c1\nc[nH]c2c1ccn2[C@@H]1O[C@H]([C@H](OC)c2ccc(Cl)c(F)c2)[C@@H](O)[C@H]1O [Example 102, 7-((2R,3R,4S,5S)-5-((R)-(4-chloro-3-fluorophenyl)(methoxy)methyl)-3,4-dihydroxytetrahydrofuran-2-yl)-1,7-dihydro-4H-pyrrolo[2,3-d]pyrimidin-4-one O-methyl oxime] | 436 | 3360 | – |
| CN/N=c1/nc[nH]c2c1ncn2[C@@H]1O[C@H]([C@H](O)c2ccc(Cl)cc2)[C@@H](O)[C@H]1O [compound 52, (2R,3S,4R,5R)-2-[(R)-(4-chlorophenyl)-hydroxy-methyl]-5-[6-(methylhydrazono)-3H-purin-9-yl]tetrahydrofuran-3,4-diol; 2,2,2-trifluoroacetic Acid] | 188 | – | 39 |
| O/N=c1/nc[nH]c2c1ncn2[C@@H]1O[C@H]([C@H](O)c2ccc(Cl)cc2)[C@@H](O)[C@H]1O [compound 54, 9-[(2R,3R,4S,5R)-5-[(R)-(4-chlorophenyl)-hydroxy-methyl]-3,4-dihydroxy-tetrahydrofuran-2-yl]-3H-purin-6-one oxime trifluoroacetic Acid Salt] | 25.6 | – | 55 |
| C[C@@](O)(c1ccc(Cl)cc1)[C@H]1O[C@@H](n2ccc3/c(=N/O)nc[nH]c32)[C@H](O)[C@@H]1O [compound 59, 7-((2R,3R,4S)-5-((R)-1-(4-chlorophenyl)-1-hydroxyethyl)-3,4-dihydroxytetrahydrofuran-2-yl)-1,7-dihydro-4H-pyrrolo[2,3-d]pyrimidin-4-one oxime hydrochloride] | 2.8 | 45 | – |
| CO/N=c1\nc[nH]c2c1ccn2[C@@H]1O[C@H]([C@](C)(O)c2ccc(Cl)cc2)[C@@H](O)[C@H]1O [compound 60, 7-((2R,3R,4S)-5-((R)-1-(4-chlorophenyl)-1-hydroxyethyl)-3,4-dihydroxytetrahydrofuran-2-yl)-1,7-dihydro-4H-pyrrolo[2,3-d]pyrimidin-4-one O-methyl oxime] | 37.7 | 438 | – |
| O/N=c1/nc[nH]c2c1ccn2[C@@H]1O[C@H]([C@H](O)c2ccc(Cl)c(F)c2)[C@@H](O)[C@H]1O [compound 63, 7-((2R,3R,4S,5R)-5-((R)-(4-chloro-3-fluorophenyl)(hydroxy)methyl)-3,4-dihydroxytetrahydrofuran-2-yl)-1,7-dihydro-4H-pyrrolo[2,3-d]pyrimidin-4-one oxime] | 0.7 | 10.8 | – |
| CN/N=c1\nc[nH]c2c1ccn2[C@@H]1O[C@H]([C@H](O)c2ccc(Cl)cc2)[C@@H](O)[C@H]1O [compound 64, (2R,3S,4R,5R)-2-[(R)-(4-chlorophenyl)-hydroxy-methyl]-5-[4-(methylhydrazono)-1H-pyrrolo[2,3-d]pyrimidin-7-yl]tetrahydrofuran-3,4-diol hydrochloride] | 8.3 | 93 | – |
| O/N=c1/nc[nH]c2c1ccn2[C@@H]1O[C@H]([C@H](O)c2ccc(F)c(Cl)c2)[C@@H](O)[C@H]1O [compound 65, 7-((2R,3R,4S,5R)-5-((R)-(3-chloro-4-fluorophenyl)(hydroxy)methyl)-3,4-dihydroxytetrahydrofuran-2-yl)-1,7-dihydro-4H-pyrrolo[2,3-d]pyrimidin-4-one oxime] | 1.9 | 16 | – |
| O/N=c1\nc[nH]c2c1ccn2[C@@H]1O[C@H]([C@H](O)c2ccc(Cl)c(Cl)c2)[C@@H](O)[C@H]1O [compound 66, 7-((2R,3R,4S,5R)-5-((R)-(3,4-dichlorophenyl)(hydroxy)methyl)-3,4-dihydroxytetrahydrofuran-2-yl)-1,7-dihydro-4H-pyrrolo[2,3-d]pyrimidin-4-one oxime] | 0.4 | 1.8 | – |
| O/N=c1\nc[nH]c2c1ccn2[C@@H]1O[C@H]([C@H](O)c2ccc(F)c(F)c2)[C@@H](O)[C@H]1O [compound 67, 7-((2R,3R,4S,5R)-5-((R)-(3,4-difluorophenyl)(hydroxy)methyl)-3,4-dihydroxytetrahydrofuran-2-yl)-1,7-dihydro-4H-pyrrolo[2,3-d]pyrimidin-4-one oxime] | 0.6 | 10 | – |
| CO/N=c1/nc[nH]c2c1ccn2[C@@H]1O[C@H]([C@H](O)c2ccc(F)c(Cl)c2)[C@@H](O)[C@H]1O [compound 68, 7-((2R,3R,4S,5R)-5-((R)-(3-chloro-4-fluorophenyl)(hydroxy)methyl)-3,4-dihydroxytetrahydrofuran-2-yl)-1,7-dihydro-4H-pyrrolo[2,3-d]pyrimidin-4-one O-methyl oxime] | 35 | 90 | – |
| Cc1n/c(=N\O)c2ccn([C@@H]3O[C@H]([C@H](O)c4ccc(Cl)cc4)[C@@H](O)[C@H]3O)c2[nH]1 [compound 71, 7-((2R,3R,4S,5R)-5-((R)-(4-chlorophenyl)(hydroxy)methyl)-3,4-dihydroxytetrahydrofuran-2-yl)-2-methyl-1,7-dihydro-4H-pyrrolo[2,3-d]pyrimidin-4-one oxime] | 13.9 | 260 | – |
| O/N=c1/nc[nH]c2c1c(F)cn2[C@@H]1O[C@H]([C@H](O)c2ccc(Cl)cc2)[C@@H](O)[C@H]1O [compound 72, 7-((2R,3R,4S,5R)-5-((R)-(4-chlorophenyl)(hydroxy)methyl)-3,4-dihydroxytetrahydrofuran-2-yl)-5-fluoro-1,7-dihydro-4H-pyrrolo[2,3-d]pyrimidin-4-one oxime] | 2.8 | 41 | – |
| N/N=c1/nc[nH]c2c1c(F)cn2[C@@H]1O[C@H]([C@H](O)c2ccc(Cl)cc2)[C@@H](O)[C@H]1O [compound 73, (2R,3S,4R,5R)-2-((R)-(4-chlorophenyl)(hydroxy)methyl)-5-(5-fluoro-4-hydrazineylidene-1,4-dihydro-7H-pyrrolo[2,3-d]pyrimidin-7-yl)tetrahydrofuran-3,4-diol] | 9.7 | 313 | – |
| CO/N=c1/nc[nH]c2c1ccn2[C@@H]1O[C@H]([C@H](O)c2ccc(C(F)(F)F)c(F)c2)[C@@H](O)[C@H]1O [compound 78, 7-((2R,3R,4S,5R)-5-((R)-(3-fluoro-4-(trifluoromethyl)phenyl)(hydroxy)methyl)-3,4-dihydroxytetrahydrofuran-2-yl)-1,7-dihydro-4H-pyrrolo[2,3-d]pyrimidin-4-one O-methyl oxime] | 3.1 | 33 | – |
| CO/N=c1/nc[nH]c2c1ccn2[C@@H]1O[C@H]([C@H](O)c2ccc(Cl)c(C)c2)[C@@H](O)[C@H]1O [compound 80, 7-((2R,3R,4S,5R)-5-((R)-(4-chloro-3-methylphenyl)(hydroxy)methyl)-3,4-dihydroxytetrahydrofuran-2-yl)-1,7-dihydro-4H-pyrrolo[2,3-d]pyrimidin-4-one O-methyl oxime] | 0.7 | 18 | – |
| CN/N=c1\nc[nH]c2c1ccn2[C@@H]1O[C@H]([C@H](O)c2ccc(Cl)c(Cl)c2)[C@@H](O)[C@H]1O [compound 81, (2R,3S,4R,5R)-2-((R)-(3,4-dichlorophenyl)(hydroxy)methyl)-5-(4-(2-methylhydrazineylidene)-1,4-dihydro-7H-pyrrolo[2,3-d]pyrimidin-7-yl)tetrahydrofuran-3,4-diol] | 0.3 | 9 | – |
